According to US20250100962A1 (CITY OF HOPE, priority 2023, published 2025):
Entries after “also recorded” stand apart in the source; their conditions may differ.

How the values were obtained:
[1] = test system: dystrophin-deficient mdx primary myoblasts; test: Myogenic differentiation of mdx primary myoblasts (MyHC staining); format: cell-based, mouse; conditions: for mature myofiber/myocyte formation (MyHC staining): 2% FBS, vs DMSO
Text: FIGS. 16A-16B. Pro-myogenic effect of chlorhexidine on dystrophin-deficient mdx primary myoblasts. FIG. 16A: We used primary myoblasts isolated from male mdx mice as a cellular model to test the effect of CHX on myogenesis. […] Both of the pro-myogenic and proliferative effects of CHX observed in mdx primary myoblasts were consistent with prior findings from C2C12 myoblasts. Additional validations of these effects are on-going using myoblasts derived from human DMD patients.
FIGS. 22A-22B. […] Using primary myoblasts isolated from mdx mice, we determined CM002 effect on myogenesis in this dystrophic disease cellular model. […] Similar as shown in C2C12 myoblasts, this effect was stronger than that of CHX.

C3H10T1/2 cells = test: Clock and Wnt gene/protein expression in C3H10T1/2 cells; format: cell-based; conditions: for β-catenin protein level during adipogenic differentiation: 1 μM, before and after adipogenic induction; for mRNA levels of Wnt ligands and receptors / clock gene expression: 10T1/2 cells; for mRNA levels of Wnt ligands and receptors: 6 hours; for clock gene expression: RT-qPCR
Protocol: Immunoblot analysis. Total protein was extracted using lysis buffer containing 3% NaCl, 5% Tris-HCl, 10% Glycerol, 0.5% Triton X-10 in MilliQ water with protease inhibitor cocktail. 20-40 μg of total protein was resolved on 10% SDS-PAGE gels followed by immunoblotting on PVDF membranes (Bio-rad). Membranes were developed by chemiluminescence (SuperSignal West Pico, Pierce Biotechnology) and signals were obtained via a chemiluminescence imager (Amersham Imager 680, GE Biosciences).
RNA extraction and RT-qPCR analysis. PureLink RNA Mini Kit (Invitrogen) were used to isolate total RNA from cells. cDNA was generated using Revert Aid RT kit (ThermoFisher) and quantitative PCR was performed using SYBR Green Master Mix (Thermno Fisher) in triplicates on ViiA 7 Real-Time PCR System (Applied Biosystems). Relative expression levels were determined using the comparative Ct method with normalization to 361B4 as internal control.

primary preadipocytes = test: Adipogenic differentiation of primary preadipocytes; format: cell-based, mice; conditions: for mature adipocyte formation: 0.5 and 1 μM
Protocol: Primary preadipocyte isolation and adipogenic induction. The stromal vascular fraction containing preadipocytes were isolated from subcutaneous fat pads, as described (Chatterjee, Nam, Guo et al., 2013). Briefly, fat pads were cut into pieces and digested using 0.1% collagenase Type 1 with 0.8% BSA at 37° C. in a horizontal shaker for 60 minutes, passed through Nylon mesh and centrifuged to collect the pellet containing the stromal vascular fraction with preadipocytes. Preadipocytes were cultured in F12/DMEM supplemented with bFGF (2.5 ng/ml), expanded for two passages and subjected to differentiation in 6-well plates at 90% confluency. Adipogenic differentiation was induced for 2 days in medium containing 10% FBS, 1.6 μM insulin, 1 μM dexamethasone, 0.5 mM IBMX, 0.5 μM rosiglitazone before switching to maintenance medium for 4 days with insulin only. Nobiletin at indicated concentrations were added for the entire differentiation time course. Oil-red-O and Bodipy staining. These stainings for neutral lipids during adipogenic differentiation were performed as previously described (Nam et al., 2015). Briefly, for oil-red-O staining, cells were fixed using 10% formalin and incubated using 0.5% oil-red-O solution for 1 hour. Bodipy 493/503 was used at 1 mg/L together with DAPI for 15 minutes, following 4% paraformaldehyde fixation and permeabilization with 0.2% triton-X100. Immunoblot analysis. Total protein was extracted using lysis buffer containing 3% NaCl, 5% Tris-HCl, 10% Glycerol, 0.5% Triton X-10 in MilliQ water with protease inhibitor cocktail. 20-40 μg of total protein was resolved on 10% SDS-PAGE gels followed by immunoblotting on PVDF membranes (Bio-rad). Membranes were developed by chemiluminescence (SuperSignal West Pico, Pierce Biotechnology) and signals were obtained via a chemiluminescence imager (Amersham Imager 680, GE Biosciences).

[2] = test system: human primary myoblasts derived from DMD patients; test: MTT cell viability of human DMD primary myoblasts; format: cell-based
Protocol: Cells were seeded at 5×10^4 concentration in 100 μl culture medium into 96 wells flat bottom microplates and treated after 24 h with desired compounds and controls. After desired incubation periods, cells were treated with MTT labeling reagent 1× (MTT (3-[4,5-dimethylthiazol-2-yl]-2,5-diphenyltetrazolium bromide labeling reagent, 5 mg/ml in PBS, Roche Cell Proliferation Kit I (MTT)) and Solubilization buffer 1× (10% SDS in 0.01 M HCl and left overnight. Next morning absorbance was measured at 570 nm and 700 nm on microplate (ELISA) reader (TECAN infinite M200pro). The mean and standard deviation values were calculated for each well and graphed.
FIGS. 41A-41D. Effect of Chlorhexidine (CHX) and CM002 treatment on viability of mouse and human myoblasts. To determine potential toxic effects of CHX and CM002, we treated mouse C2C12 myoblast cell line with increasing concentrations from 0.2-5 μM for 48 hours and determined cell viability using the MTT assay (FIG. 41A). […] Considering the inflammatory milieus in dystrophic muscles, we further tested the tolerance of myoblasts to these molecules in the presence of inflammatory stimuli, a cytokine cocktail (CC) consisted of 10 ng/mL IL-1β, 100 ng/mL IFN-γ and 25 ng/mL of TNF-α (FIG. 41B). […] Lastly, human primary myoblasts derived from Duchene Muscular Dystrophy (DMD) patients were used to determine their tolerance to these compounds.

C57/BL6 wild-type mice = test: Cardiotoxin-induced acute muscle injury, intramuscular injection into TA muscle; format: in vivo, mouse; conditions: for eMyHC staining (new myofiber formation): after cardiotoxin injury, local intramuscular injection
Text: FIGS. 42A-42B. CHX and CM002 promote nascent myofiber formation upon acute muscle injury. To determine whether the effect of CHX and CM002 on promoting myogenesis leads to improved muscle regeneration in vivo, we tested local intramuscular injection into TA muscle following acute injury by cardiotoxin in normal C57/BL6 wild-type mice. […] Collectively, these findings indicate that these clock-activating molecules are capable of inducing myogenic response via local administration leading to sustained new myofiber formation following acute muscle injury.

Structure (SMILES)	pro-myogenic effect in Bmal1-deficient (BMKO/mdx) primary myoblasts ([1]; day 3 of differentiation)	mature myofiber/myocyte formation (MyHC staining) ([1]; day 3 of differentiation)	β-catenin protein level during adipogenic differentiation (C3H10T1/2 cells)	mRNA levels of Wnt ligands and receptors (C3H10T1/2 cells)	clock gene expression (C3H10T1/2 cells)	FASN, terminal differentiation marker (primary preadipocytes; day 6 of differentiation)	adipogenic factor induction (primary preadipocytes; day 6 of differentiation)	mature adipocyte formation (primary preadipocytes; six days of differentiation)	concentration up to which viability is not significantly compromised ([2]; with cytokine cocktail)	Pax7 protein (C57/BL6 wild-type mice; CTX-injected TA muscle)	eMyHC staining (new myofiber formation) (C57/BL6 wild-type mice)	myotube fusion, cells seeded at low density ([1]; 1 μM vs 0.5 μM, day 3)	reduction of adipocyte formation in Bmal1-deficient (BMKO) preadipocytes (primary preadipocytes; six days of differentiation)	adipocyte formation, compound given after initial two days of adipogenic induction (primary preadipocytes; vs presence throughout differentiation)	cell death at 5 μM ([2]; human, 5 μM)	MyoD, Myf5 and Myogenin levels (C57/BL6 wild-type mice; CTX-injected TA muscle)
[H]/N=C(\N/C(=N/[H])NCCCCCCNC(=N)NC(=N)Nc1ccc(Cl)cc1)Nc1ccc(Cl)cc1 [CHX, chlorhexidine]	abolished in Bmal1-deficient mdx primary myoblasts	significantly elevated formation of mature myofibers	sufficient to re-activate the lost b-catenin protein level during adipogenic differentiation	induced the mRNA levels of Wnt1, Wnt10a, Fzd2, Fzd5	inductions of Pers and Crys	markedly attenuated the terminal differentiation marker of adipocytes, FASN	only resulted in a tendency toward suppressing adipogenic factor induction	dose-dependent, marked effect on suppressing mature adipocyte formation	up to 5 μM	robustly increased	substantial amount of eMyHC staining indicative of sustained nascent myofiber regeneration	–	–	–	–	–
CCCCCC/C=N/C(=N)NC(=N)Nc1ccc(Cl)cc1 [CM002]	–	significantly enhanced mature myocyte formation induced by 0.5 μM CM002 treatment	partially reverse the decline of β-catenin level at the differentiated state	significant induction of Wnt ligands including Wnt1 and Wnt10a transcripts	induction of core clock transcription activators, CLOCK and Bmal1, together with up-regulation of its direct transcriptional target within the molecular clock loop, Nr1d1	–	–	strongly inhibited their differentiation; also recorded: dose-dependent reductions by CM002 at 0.5 and 1 μM concentration	–	robustly increased	substantial amount of eMyHC staining indicative of sustained nascent myofiber regeneration	more advanced myotube fusion than that of 0.5 μM	severely blunted	still retained its efficacy of blocking adipocyte formation largely to the same extent	displaying sensitivity to cell death by CM002 treatment at this concentration	elevated levels of MyoD, Myf5 and Myogenein
